According to patent US9884063B2, “Amido-substituted azole compounds” (Bayer Pharma Aktiengesellschaft, priority 2014, dated 2018):

Tests used:
[1] = test system: HEK293 FOP control reporter cell line; experiment: HEK293 FOP Assay (FOP control vector luciferase reporter); assay type: cell-based; conditions: Homo sapiens
Outline: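 Stable HEK293 line carrying the FOP vector (randomized, non-functional TCF sites; Geneticin-selected) was run in parallel with the TOP line. Cells were plated 24 h ahead at 10000/well and given recombinant human Wnt-3a at 2500–5 ng/ml. Compounds were tested at 50 μM–15 nM (3.16-fold steps) in CAFTY buffer, pH 7.4, with 2 mM Ca2+ and 0.01% BSA.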

TNKS2 = target: T1, TNKS2 (Homo sapiens, UniProt Q9H2K2); experiment: TNKS2 Assay 1 (TNKS2 Histone Ribosylation Assay Kit, biotin-labeled NAD+); assay type: biochemical; conditions: chemiluminescent readout, 384 well
T1 sequence (Q9H2K2 1-1166): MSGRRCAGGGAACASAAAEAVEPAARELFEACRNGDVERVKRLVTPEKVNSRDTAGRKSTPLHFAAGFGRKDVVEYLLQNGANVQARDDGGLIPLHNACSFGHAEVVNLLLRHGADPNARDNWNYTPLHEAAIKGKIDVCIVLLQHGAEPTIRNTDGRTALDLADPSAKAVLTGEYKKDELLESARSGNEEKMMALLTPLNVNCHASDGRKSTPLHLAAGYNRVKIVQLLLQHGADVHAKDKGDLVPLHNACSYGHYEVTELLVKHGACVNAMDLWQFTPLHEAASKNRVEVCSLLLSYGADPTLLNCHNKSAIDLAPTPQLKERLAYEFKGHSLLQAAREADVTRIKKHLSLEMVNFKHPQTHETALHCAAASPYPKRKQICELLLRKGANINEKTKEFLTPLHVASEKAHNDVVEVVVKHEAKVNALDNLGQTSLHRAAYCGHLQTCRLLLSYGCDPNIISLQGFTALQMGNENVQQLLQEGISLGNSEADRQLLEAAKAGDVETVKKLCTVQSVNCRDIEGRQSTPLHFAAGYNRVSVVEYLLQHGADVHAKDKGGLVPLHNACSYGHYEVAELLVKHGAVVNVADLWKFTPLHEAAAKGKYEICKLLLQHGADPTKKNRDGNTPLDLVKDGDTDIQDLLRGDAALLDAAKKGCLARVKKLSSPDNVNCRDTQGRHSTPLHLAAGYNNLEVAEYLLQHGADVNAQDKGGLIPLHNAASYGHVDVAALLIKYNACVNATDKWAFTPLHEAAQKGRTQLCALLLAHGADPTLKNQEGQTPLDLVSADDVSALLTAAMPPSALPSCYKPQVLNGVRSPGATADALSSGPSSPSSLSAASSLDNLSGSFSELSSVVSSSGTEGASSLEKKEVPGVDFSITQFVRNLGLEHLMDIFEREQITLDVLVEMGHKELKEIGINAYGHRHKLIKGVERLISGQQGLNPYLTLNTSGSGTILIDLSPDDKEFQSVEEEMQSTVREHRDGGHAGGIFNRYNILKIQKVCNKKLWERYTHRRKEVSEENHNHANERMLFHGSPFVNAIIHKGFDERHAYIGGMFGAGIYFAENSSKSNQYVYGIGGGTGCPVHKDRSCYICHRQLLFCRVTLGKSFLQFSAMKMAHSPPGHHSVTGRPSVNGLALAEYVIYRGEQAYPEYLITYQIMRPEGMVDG
Procedure: The potency of the compounds according to the invention was assessed applying an in vitro inhibition assay. The TNKS2 catalyzed NAD^+-dependent ribosylation of a suitable protein substrate was detected using a commercially available biotin/streptavidin binding based assay format [TNKS2 Histone Ribosylation Assay Kit (Biotin-labeled NAD+), Catalog #80572; BPS Bioscience, San Diego, USA]. Here, the incorporation of a biotin-labeled NAD+ during the TNKS2 catalyzed ribosylation reaction was detected with a streptavidin-HRP coupled chemi-luminescent readout. The intensity of the readout signal is proportional to the incorporated NAD^+. Inhibition of TNKS2 leads to a decreased incorporation of NAD^+ and consequently to a lower readout signal intensity. The concentration of a test compound which inhibits the enzyme activity by 50% (corresponds to half of the normed readout signal intensity) is reported as IC50.
The assay was conducted in a 384 well MTP format according to the manufacturer's protocol [bpsbioscience.com/poly-adp-ribose-polymerase/assay-kit/tnks2-histone-ribosylation-assay-kit-biotin-labeled-nad-80572 referencing: Brown, J. A., Marala, R. B. J. Pharmacol. Toxicol. Methods 2002 47:137-41]. and using a BMG Pherastar MTP reader [BMG-Labtech, Offenburg, Germany].

[2] = HEK293 FOP control reporter cells, 16 hours, luciferase, dilution series from 50 μM
[3] = HEK293 FOP control reporter cell line, 16 hours incubation, compound dilution series 50 μM to 15 nM

IC50 (TNKS2; Table 2) [µM]	IC50 (TNKS2; first table) [µM]	SMILES	IC50 [1, 2] [µM]	IC50 [1, 3] [µM]
0.05	0.05	CNC(=O)c1nc[nH]c1C(=O)Nc1ccc(NC(=O)c2ccncc2Cl)cc1 [Example 6, N^5-{4-[(3-chloroisonicotinoyl)amino]phenyl}-N^4-methyl-1H-imidazole-4,5-dicarboxamide]	≥ 50	–
–	–	CC(C)(CNC(=O)c1[nH]cnc1C(=O)Nc1ccc(NC(=O)c2ccccc2Cl)cc1)N1CCCCC1 [Example 165, N^4-{4-[(2-chlorobenzoyl)amino]phenyl}-N^5-[2-methyl-2-(piperidin-1-yl)propyl]-1H-imidazole-4,5-dicarboxamide]	–	31
–	–	O=C(Nc1ccc(NC(=O)c2nc[nH]c2C(=O)NCCCN2CCOCC2)cc1)c1ccccc1Cl [Example 200, N^4-{4-[(2-chlorobenzoyl)amino]phenyl}-N^5-[3-(morpholin-4-yl)propyl]-1H-imidazole-4,5-dicarboxamide]	–	20
0.02	0.02	CNC(=O)c1nc[nH]c1C(=O)Nc1ccc(NC(=O)c2ccc(F)cc2Cl)cc1 [Example 12, N^5-{4-[(2-chloro-4-fluorobenzoyl)amino]phenyl}-N^4-methyl-1H-imidazole-4,5-dicarboxamide]	≥ 50	–
19	19.1	CCC(C)NC(=O)c1ncoc1C(=O)Nc1ccc(NC(=O)c2ccc(F)cc2Cl)cc1 (stereo not shown) [Example 7, N^4-sec-butyl-N^5-{4-[(2-chloro-4-fluorobenzoyl)amino]phenyl}-1,3-oxazole-4,5-dicarboxamide]	45	45
–	–	O=C(NCCN1CCCCC1)c1nc[nH]c1C(=O)Nc1ccc(NC(=O)c2c(F)cc(F)cc2Cl)cc1 [Example 119, N^5-{4-[(2-chloro-4,6-difluorobenzoyl)amino]phenyl}-N^4-[2-(piperidin-1-yl)ethyl]-1H-imidazole-4,5-dicarboxamide]	–	20
0.34	0.34	CNC(=O)c1nc[nH]c1C(=O)Nc1ccc(NC(=O)c2c(C)cc(F)cc2C)cc1 [Example 23, N^5-{4-[(4-fluoro-2,6-dimethylbenzoyl)amino]phenyl}-N^4-methyl-1H-imidazole-4,5-dicarboxamide]	≥ 50	–
0.5	0.5	CN(C)C(=O)c1nc[nH]c1C(=O)Nc1ccc(NC(=O)c2ccc(F)cc2Cl)cc1 [Example 24, N^5-{4-[(2-chloro-4-fluorobenzoyl)amino]phenyl}-N^4,N^4-dimethyl-1H-imidazole-4,5-dicarboxamide]	≥ 50	–
–	–	CNC(=O)c1nc[nH]c1C(=O)Nc1ccc(NC(=O)c2cc(OCCN3CCCCC3)ccc2Cl)cc1 [Example 125, N^5-[4-({2-chloro-5-[2-(piperidin-1-yl)ethoxy]benzoyl}amino)phenyl]-N^4-methyl-1H-imidazole-4,5-dicarboxamide]	–	15
–	–	CN1CCN(C(C)(C)CNC(=O)c2[nH]cnc2C(=O)Nc2ccc(NC(=O)c3ccc(F)cc3Cl)cc2)CC1 [Example 187, N^4-{4-[(2-chloro-4-fluorobenzoyl)amino]phenyl}-N^5-[2-methyl-2-(4-methylpiperazin-1-yl)propyl]-1H-imidazole-4,5-dicarboxamide]	–	28
–	–	O=C(Nc1ccc(NC(=O)c2nc[nH]c2C(=O)NCCCCN2CCCCC2)cc1)c1ccccc1Cl [Example 189, N^4-{4-[(2-chlorobenzoyl)amino]phenyl}-N^5-[4-(piperidin-1-yl)butyl]-1H-imidazole-4,5-dicarboxamide]	–	28
–	–	CC1CCN(CCNC(=O)c2nc[nH]c2C(=O)Nc2ccc(NC(=O)c3ccc(F)cc3Cl)cc2)CC1 [Example 126, N^5-{4-[(2-chloro-4-fluorobenzoyl)amino]phenyl}-N^4-[2-(4-methylpiperidin-1-yl)ethyl]-1H-imidazole-4,5-dicarboxamide]	–	27
–	–	CC(C)(CN1CCOCC1)NC(=O)c1[nH]cnc1C(=O)Nc1ccc(NC(=O)c2ccc(F)cc2)cc1 [Example 180, N^4-{4-[(4-fluorobenzoyl)amino]phenyl}-N^5-[2-methyl-1-(morpholin-4-yl)propan-2-yl]-1H-imidazole-4,5-dicarboxamide]	–	37
–	–	O=C(Nc1ccc(NC(=O)c2nc[nH]c2C(=O)NC2CCOC2)cc1)c1ccc(F)cc1Cl (stereo not shown) [Example 236, N^4-{4-[(2-chloro-4-fluorobenzoyl)amino]phenyl}-N^5-(tetrahydrofuran-3-yl)-1H-imidazole-4,5-dicarboxamide]	–	34
–	–	CNC(=O)c1nc[nH]c1C(=O)Nc1ccc(NC(=O)c2ncccc2Cl)cc1 [Example 247, N^5-(4-{[(3-chloropyridin-2-yl)carbonyl]amino}phenyl)-N^4-methyl-1H-imidazole-4,5-dicarboxamide]	–	35
–	–	CCNC(=O)c1nc[nH]c1C(=O)Nc1ccc(NC(=O)c2ccc(OCC)cc2Cl)cc1 [Example 259, N^5-{4-[(2-chloro-4-ethoxybenzoyl)amino]phenyl}-N^4-ethyl-1H-imidazole-4,5-dicarboxamide]	–	33
–	–	CC(C)(C)CNC(=O)c1[nH]cnc1C(=O)Nc1ccc(NC(=O)c2ccccc2Cl)cc1 [Example 148, N^4-{4-[(2-chlorobenzoyl)amino]phenyl}-N^5-(2,2-dimethylpropyl)-1H-imidazole-4,5-dicarboxamide]	–	16
–	–	O=C(Nc1ccc(NC(=O)c2nc[nH]c2C(=O)NCCN2CCCCC2)cc1)c1ccc(F)cc1Br [Example 216, N^4-{4-[(2-bromo-4-fluorobenzoyl)amino]phenyl}-N^5-[2-(piperidin-1-yl)ethyl]-1H-imidazole-4,5-dicarboxamide]	–	11
–	–	CC(C)(CN1CCCCC1)NC(=O)c1[nH]cnc1C(=O)Nc1ccc(NC(=O)c2ccccc2Cl)cc1 [Example 171, N^4-{4-[(2-chlorobenzoyl)amino]phenyl}-N^5-[2-methyl-1-(piperidin-1-yl)propan-2-yl]-1H-imidazole-4,5-dicarboxamide]	–	6.5
–	–	O=C(Nc1ccc(NC(=O)c2ocnc2C(=O)NCCN2CCC(F)(F)CC2)cc1)c1ccc(F)cc1Cl [Example 218, N^5-{4-[(2-chloro-4-fluorobenzoyl)amino]phenyl}-N^4-[2-(4,4-difluoropiperidin-1-yl)ethyl]-1,3-oxazole-4,5-dicarboxamide]	–	31.5
–	–	CC(C)(CNC(=O)c1[nH]cnc1C(=O)Nc1ccc(NC(=O)c2ccc(F)cc2)cc1)N1CCCCC1 [Example 209, N^4-{4-[(4-fluorobenzoyl)amino]phenyl}-N^5-[2-methyl-2-(piperidin-1-yl)propyl]-1H-imidazole-4,5-dicarboxamide]	–	22
–	–	CC1CCCN(CCNC(=O)c2[nH]cnc2C(=O)Nc2ccc(NC(=O)c3ccc(F)cc3Cl)cc2)C1 (stereo not shown) [Example 208, N^4-{4-[(2-chloro-4-fluorobenzoyl)amino]phenyl}-N^5-[2-(3-methylpiperidin-1-yl)ethyl]-1H-imidazole-4,5-dicarboxamide]	–	23
–	–	CC(C)CNC(=O)c1[nH]cnc1C(=O)Nc1ccc(NC(=O)c2ccc(F)cc2Cl)cc1 [Example 147, N^4-{4-[(2-chloro-4-fluorobenzoyl)amino]phenyl}-N^5-isobutyl-1H-imidazole-4,5-dicarboxamide]	–	6
